Source: US20140243411A1 (priority 2011, published 2014)
Marks after values point to notes of the source that are not given here.

Tested on: rats contaminated with ^241Am
Experiment: Radionuclide decorporation efficacy study in rats contaminated with 241Am (Example 10): excretion, tissue content, liver and skeleton burden
Type: in vivo, SD rats
Method: All animal studies were conducted according to a protocol approved by the University of North Carolina at Chapel Hill Institutional Animal Care and Use Committee (IACUC). Ten-week-old adult female SD rats weighing from 200 to 300 g were used in these studies (Charles River Labs, Raleigh, N.C.). Food and water were given ad libitum. The animal room was kept at a controlled temperature (23° C.) and light cycle (light exposure from 8 AM to 8 PM). For the duration of the study, the rats were housed in metabolic cages individually with daily urine and feces collection until euthanasia on Day 7.
To evaluate the efficacy of transdermal delivery of the C2E5 nonaqueous gel, a radionuclide decorporation efficacy study was conducted in rats contaminated with ^241Am. Adult female SD rats were anesthetized with 2-3% isoflurane. Dorsal skin between the cervical vertebrae and anterior thoracic vertebrae was clipped with caution before all animals were contaminated with [^241Am]-Americium nitrate solution (250 nCi, 0.1 mL) via an i.m. injection in anterior thigh muscle. The C2E5 nonaqueous gel was applied at dose of 1000 mg/kg using a cotton swap to a 6 cm^2 (2 cm×3 cm) area of the clipped dorsal region immediately after contamination. A jacket with plastic dorsal insert (VWR International) was placed on the rat to protect the gel application region. The mass of C2E5 gel applied was recorded for each animal to permit the actual dose determination. The animals were housed in metabolic cages individually after C2E5 treatment and were euthanized 7 days after contamination. Positive and negative controls included animals administered Ca-DTPA intravenously and animals without any treatment. The animals were observed once daily and their body weights recorded at pre-dose and prior to necropsy, Urine and feces were collected daily until euthanasia, when the liver, kidneys, both femurs and the muscle tissue from around the injection site were also collected. Cage washes were collected at the end of each experiment. As ˜35% of the decay of ^241Am is associated with photon emissions of 59.7 keV, ^241Am present in samples was quantified using a gamma counter (2470 Wizard 2, Perkin Elmer). The samples were counted for one minute using a 40-80 keV energy detection window and were background-corrected. Additionally, ^241Am activity was quantified in 2×0.1 mL aliquots of the dosing solution. For all samples, ^241Am content was expressed as a percentage of the initial dose.
where % ID represents the percent of injected dose. Where data for both femurs were available, an estimate of the total skeletal burden was made using the method of Volf with modification in which the counts in the contra-lateral femur were multiplied by 19 and added to the counts in the ipsi-lateral femur. The modification for the literature method was due to higher ^241Am content in ipsi-lateral femur as a result of i.m. injection in anterior thigh muscle.
Statistically significant differences among groups were determined using one-way ANOVA with Tukey's post hoc comparison. All measurements are expressed as mean±standard deviation (S.D.). The level of significance was set at p<0.05.

[1] = rats, seven days following a single dose, Ca-DTPA 14 mg/kg i.v., C2E5 1000 mg/kg transdermal
[2] = seven days after single dose, Ca-DTPA 14 mg/kg i.v., C2E5 1000 mg/kg transdermal gel

## O=C([O-])CN(CCN(CC(=O)[O-])CC(=O)[O-])CCN(CC(=O)[O-])CC(=O)[O-].[Ca+2].[Na+].[Na+].[Na+] [Ca-DTPA, reference compound]
14 mg/kg i.v.
  time of peak ^241Am excretion: ≤ 24 h
contra-lateral femur × 19 + ipsi-lateral femur, rats, seven days following a single dose, Ca-DTPA 14 mg/kg i.v. (n = 3), C2E5 1000 mg/kg transdermal
  Skeleton Burden (% of ID): 11.6 ± 2.2^b % of ID
rats, seven days following a single dose, Ca-DTPA 14 mg/kg i.v. (one animal excluded), C2E5 1000 mg/kg transdermal
  Ipsi-lateral femur content of 241Am: 0.88 ± 0.18^c % of ID of ^241Am
[1]
  % of Reduction over control (liver burden): 38.2%
  % of Reduction over control (skeleton burden): 29.3%
  Contra-lateral femur content of 241Am: 0.57 ± 0.09 % of ID of ^241Am
  Kidney content of 241Am: 0.55 ± 0.03 % of ID of ^241Am
  Liver Burden (% of ID): 10.2 ± 2.7 % of ID
  Liver content of 241Am: 10.2 ± 2.7 % of ID of ^241Am
  Muscle-contra content of 241Am: 0.0054 ± 0.0028 % of ID of ^241Am per gram of muscle-contra
  Muscle-ipsi content of 241Am: 40.0 ± 8.5 % of ID of ^241Am
  Pelt at injection site content of 241Am: 0.43 ± 0.24 % of ID of ^241Am
  Total decorporation (% of ID of 241Am): 24.5 ± 3.5 % of ID of ^241Am
Seven days after single dose, Ca-DTPA 14 mg/kg i.v., C2E5 1000 mg/kg transdermal
  reduction of liver burden of ^241Am versus control group: 38.2%
[2]
  % of Enhanced decorporation over control: 255.3%
  Cumulative excretion of ^241Am In feces: 6.1 ± 1.1 % of ID
  Cumulative excretion of ^241Am In urine: 18.3 ±2.5 % of ID
  Cumulative excretion of ^241Am Total: 24.5 ± 3.5 % of ID
